In patent publication US12447153B2, “HER2 mutation inhibitors” (Array BioPharma Inc., priority 2021, dated 2025):

Assays:
[1] = molecular target: ErbB2 WT (Homo sapiens (Human), UniProt P04626); experiment: ErbB Enzyme Assay (HTRF KinEASE-TK), Assay 2; format: biochemical
Procedure: (§1) The kinases were incubated with 250 nM TK-substrate biotin (CisBio, part of cat #62TKOPEC) at 1 mM ATP along with test compounds in a buffer consisting of 25 mM HEPES, pH 7.4, 10 mM MgCl2, 0.01% Triton X-100, and 2% DMSO in a volume of 8 μL. […] After 30-minute incubation at 22° C., the reaction was quenched by adding 8 μL of quench solution containing 62.5 nM Sa-XL665 and 0.25×TK-Ab-Cryptate in HTRF detection buffer (all from CisBio, part of cat #62TKOPEC).

[2] = molecular target: EGFR (Homo sapiens (Human), UniProt P00533); experiment: ErbB Enzyme Assay (HTRF KinEASE-TK), Assay 3; format: biochemical
Procedure: as §1, with “#62TKOPEC). […] A 4-parameter logistic curve was fit to the POC values as a function of the concentration of compound, and the IC50 value was the point where the best-fit curve crossed 50 POC.” for “#62TKOPEC).”

[3] = molecular target: ErbB2 with Exon 20 YVMA insertion (HER2-YVMA) (Homo sapiens (Human), UniProt P04626, INS775YVMA); experiment: Cellular Phosphorylation Assay, Assay 4 (constitutive ErbB2 phosphorylation, NIH 3T3 cells); format: cell-based
Procedure: (§2) NIH 3T3 cells were engineered to express ErbB2 with Exon 20 YVMA insertion (HER2-YVMA (SEQ ID NO: 2); Assay 4) or EGFR wild type (EGFR WT; Assay 5) with constructs obtained from GenScript and grown in DMEM supplemented with 10% fetal bovine serum and 15 μg/ml blasticidin. […] Serially diluted compounds were added to the plates for 1 hour at 37° C./5% CO2. EGFR WT cells were stimulated with 100 ng/ml rEGF for an additional 10 minutes at 37° C./5% CO2.
(§3) After compound incubation, medium was removed from the cells, which were then fixed in 3.7% formaldehyde in PBS at room temperature for 20 minutes. Following a wash with PBS, cells were permeabilized with 100% methanol at room temperature for 10 minutes. Cells were then washed with PBS/0.05% Tween-20 and blocked with Odyssey blocking buffer (LI-COR Biosciences) for at least 1 hour at room temperature. Antibodies to phosphorylated ErbB2 (Y1196, Cell Signaling #6942) or phosphorylated EGFR (Y1068, Cell Signaling #3777) and GAPDH (Millipore #MAB374) were added to the cells in blocking buffer containing 0.05% azide and incubated overnight at 4° C. After washing with PBS/0.05% Tween-20, the cells were incubated with fluorescently labeled secondary anti-rabbit antibody (LiCOR, IRDye 800CW #926-32211) and anti-mouse antibody (Molecular Probes, Alexa Fluor 680 #A21058) for 1 hour at room temperature in the dark. Cells were then washed and analyzed for fluorescence at both wavelengths using the Odyssey Infrared Imaging System (LI-COR Biosciences). Phosphorylated ErbB2 and EGFR signal was normalized to GAPDH signal to generate curves and calculate IC50 values.

[4] = molecular target: EGFR wild type (EGFR WT) (Homo sapiens (Human), UniProt P00533); experiment: Cellular Phosphorylation Assay, Assay 5 (EGF-stimulated EGFR phosphorylation, NIH 3T3 cells); format: cell-based
Procedure: as §2, §3

[5] = EGF-stimulated EGFR WT phosphorylation
[6] = cellular ErbB2 YVMA phosphorylation
[7] = cellular EGFR WT phosphorylation, EGF-stimulated

Sequence of EGFR (P00533 25-1210): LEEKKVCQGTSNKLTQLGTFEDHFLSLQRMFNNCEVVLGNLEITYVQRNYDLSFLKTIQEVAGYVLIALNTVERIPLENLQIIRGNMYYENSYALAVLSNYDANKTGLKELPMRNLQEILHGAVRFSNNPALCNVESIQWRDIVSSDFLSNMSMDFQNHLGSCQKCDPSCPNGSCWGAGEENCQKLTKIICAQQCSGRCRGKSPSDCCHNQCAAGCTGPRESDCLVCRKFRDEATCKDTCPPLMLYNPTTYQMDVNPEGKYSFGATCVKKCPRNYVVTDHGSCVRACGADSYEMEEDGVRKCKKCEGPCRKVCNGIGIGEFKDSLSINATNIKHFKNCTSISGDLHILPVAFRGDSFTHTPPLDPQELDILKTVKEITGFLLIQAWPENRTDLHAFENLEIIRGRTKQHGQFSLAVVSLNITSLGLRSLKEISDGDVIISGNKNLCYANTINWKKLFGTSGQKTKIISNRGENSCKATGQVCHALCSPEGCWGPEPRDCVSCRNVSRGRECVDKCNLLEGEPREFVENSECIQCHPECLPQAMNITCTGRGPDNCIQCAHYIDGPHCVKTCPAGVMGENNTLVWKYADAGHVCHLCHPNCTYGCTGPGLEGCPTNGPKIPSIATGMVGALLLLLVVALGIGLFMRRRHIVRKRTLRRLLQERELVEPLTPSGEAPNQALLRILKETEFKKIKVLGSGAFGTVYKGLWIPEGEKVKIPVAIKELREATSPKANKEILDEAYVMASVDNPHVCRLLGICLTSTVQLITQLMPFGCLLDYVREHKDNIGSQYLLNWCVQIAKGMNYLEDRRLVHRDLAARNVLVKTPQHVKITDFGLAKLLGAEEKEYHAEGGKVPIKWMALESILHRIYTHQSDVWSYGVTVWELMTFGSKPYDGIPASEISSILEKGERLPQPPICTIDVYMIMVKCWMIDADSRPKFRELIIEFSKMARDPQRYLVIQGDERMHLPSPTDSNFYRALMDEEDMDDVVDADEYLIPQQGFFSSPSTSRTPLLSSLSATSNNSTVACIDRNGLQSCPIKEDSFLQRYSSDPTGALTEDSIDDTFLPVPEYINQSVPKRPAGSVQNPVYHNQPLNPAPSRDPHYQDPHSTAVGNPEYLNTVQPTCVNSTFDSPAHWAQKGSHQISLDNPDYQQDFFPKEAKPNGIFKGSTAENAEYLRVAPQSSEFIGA
Sequence of EGFR wild type (EGFR WT) (P00533 25-1210): as above
Sequence of ErbB2 with Exon 20 YVMA insertion (HER2-YVMA) (P04626 other isoform, or with tags, fused parts or gaps ins YVMA behind 775): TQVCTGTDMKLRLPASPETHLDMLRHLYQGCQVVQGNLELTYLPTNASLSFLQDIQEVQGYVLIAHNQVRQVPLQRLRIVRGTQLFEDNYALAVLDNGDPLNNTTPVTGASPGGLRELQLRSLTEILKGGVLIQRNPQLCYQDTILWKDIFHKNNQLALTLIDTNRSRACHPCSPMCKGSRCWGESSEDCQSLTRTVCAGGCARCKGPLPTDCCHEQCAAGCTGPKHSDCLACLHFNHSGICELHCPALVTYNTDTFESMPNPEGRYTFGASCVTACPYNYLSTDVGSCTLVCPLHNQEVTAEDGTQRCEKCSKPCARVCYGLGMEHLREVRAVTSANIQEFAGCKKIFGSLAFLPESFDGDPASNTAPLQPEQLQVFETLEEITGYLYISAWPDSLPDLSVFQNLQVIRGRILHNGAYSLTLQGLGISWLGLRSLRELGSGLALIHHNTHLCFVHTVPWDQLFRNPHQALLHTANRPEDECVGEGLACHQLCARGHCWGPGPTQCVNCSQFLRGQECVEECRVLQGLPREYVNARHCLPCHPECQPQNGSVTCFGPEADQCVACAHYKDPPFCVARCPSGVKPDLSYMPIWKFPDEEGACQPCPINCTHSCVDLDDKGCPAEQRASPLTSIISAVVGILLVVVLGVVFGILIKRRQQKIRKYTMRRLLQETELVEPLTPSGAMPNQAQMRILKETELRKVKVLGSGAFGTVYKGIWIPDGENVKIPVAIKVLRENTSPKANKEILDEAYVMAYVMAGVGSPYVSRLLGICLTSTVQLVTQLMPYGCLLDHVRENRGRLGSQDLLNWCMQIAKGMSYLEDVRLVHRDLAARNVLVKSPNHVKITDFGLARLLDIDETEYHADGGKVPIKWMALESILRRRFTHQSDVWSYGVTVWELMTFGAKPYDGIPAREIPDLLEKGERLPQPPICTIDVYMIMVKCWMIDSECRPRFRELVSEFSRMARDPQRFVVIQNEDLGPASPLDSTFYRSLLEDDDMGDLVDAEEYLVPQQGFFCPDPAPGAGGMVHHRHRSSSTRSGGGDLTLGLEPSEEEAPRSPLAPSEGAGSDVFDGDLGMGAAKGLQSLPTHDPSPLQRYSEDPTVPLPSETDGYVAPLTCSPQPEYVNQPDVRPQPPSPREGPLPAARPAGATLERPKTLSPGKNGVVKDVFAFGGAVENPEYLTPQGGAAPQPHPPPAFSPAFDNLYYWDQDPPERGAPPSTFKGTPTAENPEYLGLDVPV
Sequence of ErbB2 WT (P04626 23-1255): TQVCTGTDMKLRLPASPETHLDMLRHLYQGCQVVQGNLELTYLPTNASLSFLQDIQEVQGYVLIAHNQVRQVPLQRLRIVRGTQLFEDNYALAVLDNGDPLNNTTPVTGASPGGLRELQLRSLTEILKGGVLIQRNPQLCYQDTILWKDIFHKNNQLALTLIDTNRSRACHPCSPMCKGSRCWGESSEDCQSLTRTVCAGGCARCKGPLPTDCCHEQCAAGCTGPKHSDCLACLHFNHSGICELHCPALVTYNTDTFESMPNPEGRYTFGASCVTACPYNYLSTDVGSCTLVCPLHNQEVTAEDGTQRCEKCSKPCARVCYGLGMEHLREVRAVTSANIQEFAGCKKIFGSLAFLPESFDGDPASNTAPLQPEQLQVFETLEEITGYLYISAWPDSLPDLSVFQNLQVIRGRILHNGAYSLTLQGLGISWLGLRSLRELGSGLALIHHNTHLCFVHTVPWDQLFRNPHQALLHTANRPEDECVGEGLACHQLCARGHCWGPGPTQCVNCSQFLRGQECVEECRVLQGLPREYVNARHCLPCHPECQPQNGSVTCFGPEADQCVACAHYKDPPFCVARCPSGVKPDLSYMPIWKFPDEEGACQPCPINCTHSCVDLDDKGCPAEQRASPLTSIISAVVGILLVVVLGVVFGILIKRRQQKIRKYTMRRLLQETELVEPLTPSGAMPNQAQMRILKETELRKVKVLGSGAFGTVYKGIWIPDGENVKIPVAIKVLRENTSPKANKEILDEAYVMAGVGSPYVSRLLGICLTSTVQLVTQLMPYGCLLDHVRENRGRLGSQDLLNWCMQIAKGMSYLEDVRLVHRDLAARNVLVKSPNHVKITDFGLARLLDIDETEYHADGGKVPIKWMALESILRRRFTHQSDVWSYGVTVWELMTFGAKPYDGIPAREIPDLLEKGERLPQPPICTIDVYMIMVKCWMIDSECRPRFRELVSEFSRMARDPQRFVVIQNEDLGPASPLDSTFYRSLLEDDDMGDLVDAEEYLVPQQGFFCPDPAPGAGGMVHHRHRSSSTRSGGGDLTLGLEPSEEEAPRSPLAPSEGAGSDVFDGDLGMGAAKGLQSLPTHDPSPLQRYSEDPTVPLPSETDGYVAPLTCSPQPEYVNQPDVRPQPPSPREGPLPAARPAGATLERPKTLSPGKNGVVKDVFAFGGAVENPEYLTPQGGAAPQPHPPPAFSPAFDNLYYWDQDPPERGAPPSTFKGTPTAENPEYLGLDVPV

SMILES | IC50 ([1]; ErbB2 WT enzyme) [µM] | IC50 ([2]; EGFR enzyme) [µM] | IC50 ([3]; ErbB2 YVMA phosphorylation) [µM] | IC50 [4, 5] [µM] | IC50 ([1]; ErbB2 WT enzyme assay) [µM] | IC50 ([2]; EGFR enzyme assay) [µM] | IC50 [3, 6] [µM] | IC50 [4, 7] [µM]
C=CC(=O)N1CCN(c2ccc3ncnc(Nc4ccc(Oc5ccn6ncnc6c5)c(Cl)c4F)c3n2)C[C@@H]1C [Example 90, (S)-1-(4-(4-((4-([1,2,4]triazolo[1,5-a]pyridin-7-yloxy)-3-chloro-2-fluorophenyl)amino)pyrido[3,2-d]pyrimidin-6-yl)-2-methylpiperazin-1-yl)prop-2-en-1-one] | 0.0134 | 0.519 | 0.0059 | 0.575 |  |  |  | 
CC#CC(=O)N1CCC[C@@H](c2ccc3ncnc(Nc4ccc(Oc5ccn6ncnc6c5)c(C)c4F)c3n2)CC1 (single isomer, unassigned) [Example 211] | 0.0654 | 5.4 | 0.317 | ≥ 5 |  |  |  | 
C=CC(=O)N1CCCN(c2ccc3ncnc(Nc4ccc(Oc5ccn6ncnc6c5)c(C)c4F)c3n2)CC1(C)C [Example 259] |  |  |  |  | 0.0204 | ≥ 10 | 0.0785 | 3.43
C=CC(=O)N1CCN(c2ccc3ncnc(Nc4ccc(Oc5ccn6ncnc6c5)c(C)c4F)c3n2)C[C@@H]1C [Example 88, (S)-1-(4-(4-((4-([1,2,4]triazolo[1,5-a]pyridin-7-yloxy)-2-fluoro-3-methylphenyl)amino)pyrido[3,2-d]pyrimidin-6-yl)-2-methylpiperazin-1-yl)prop-2-en-1-one] | 0.0813 | 2.95 | 0.0178 | 1.85 |  |  |  | 
C=CC(=O)N1CCN(c2ccc3ncnc(Nc4ccc(Oc5ccn6ncnc6c5)c(Cl)c4F)c3n2)C[C@@H]1C(F)(F)F [Example 86, (R)-1-(4-(4-((4-([1,2,4]triazolo[1,5-a]pyridin-7-yloxy)-3-chloro-2-fluorophenyl)amino)pyrido[3,2-d]pyrimidin-6-yl)-2-(trifluoromethyl)piperazin-1-yl)prop-2-en-1-one] | 0.0023 | 0.03 | 0.0057 | 0.0454 |  |  |  | 
C=CC(=O)N1C[C@H]2CC[C@@H]1CN2c1ccc2ncnc(Nc3cc(Cl)c(Oc4ccn5ncnc5c4)cc3F)c2n1 [Example 330] |  |  |  |  | 0.239 | ≥ 10 | 0.241 | ≥ 5
C=CC(=O)N1C[C@H]2C[C@@H]1[C@H](c1ccc3ncnc(Nc4ccc(Oc5ccn6ncnc6c5)c(Cl)c4F)c3n1)C2 [Example 231, 1-((1R,4R,6R)-6-(4-((4-([1,2,4]triazolo[1,5-a]pyridin-7-yloxy)-3-chloro-2-fluorophenyl)amino)pyrido[3,2-d]pyrimidin-6-yl)-2-azabicyclo[2.2.1]heptan-2-yl)prop-2-en-1-one] | 0.01 | 0.0705 | 0.0087 | 0.148 |  |  |  | 
C=CC(=O)N1CCN(c2nc3c(Nc4ccc(Oc5ccn6ncnc6c5)c(C)c4F)ncnc3cc2Cl)C[C@@H]1C [Example 149, (S)-1-(4-(4-((4-([1,2,4]triazolo[1,5-a]pyridin-7-yloxy)-2-fluoro-3-methylphenyl)amino)-7-chloropyrido[3,2-d]pyrimidin-6-yl)-2-methylpiperazin-1-yl)prop-2-en-1-one] | 0.323 | 6.7 | 0.192 | ≥ 5 |  |  |  | 
C=CC(=O)N1CCN(c2ccc3ncnc(Nc4cc(Cl)c(Oc5ccc6c(c5)ncn6C)cc4F)c3n2)CC1(C)C [Example 76, 1-(4-(4-((5-chloro-2-fluoro-4-((1-methyl-1H-benzo[d]imidazol-5-yl)oxy)phenyl)amino)pyrido[3,2-d]pyrimidin-6-yl)-2,2-dimethylpiperazin-1-yl)prop-2-en-1-one] | 0.0334 | ≥ 10 | 0.0171 | ≥ 5 |  |  |  | 
C=CC(=O)N1CCC(c2ccc3ncnc(Nc4ccc(Oc5ccc6c(c5)ncn6C)c(C)c4)c3n2)C(C)C1 (stereo not drawn) [Example 125, 1-((3RS,4R*)3-methyl-4-(4-((3-methyl-4-((1-methyl-1H-benzo[d]imidazol-5-yl)oxy)phenyl)amino)pyrido[3,2-d]pyrimidin-6-yl)piperidin-1-yl)prop-2-en-1-one] | 0.0482 | 7.48 | 0.04 | ≥ 5 |  |  |  | 
C=CC(=O)N1CC2CC(C1)N2c1ccc2ncnc(Nc3cc(C)c(Oc4ccn5ncnc5c4)cc3F)c2n1 [Example 336] |  |  |  |  | 0.203 | 5.7 | 0.0505 | 4.88
C=CC(=O)N1CCC(Oc2ccc3ncnc(Nc4ccc(Oc5ccc6cn(C)nc6c5)c(F)c4)c3n2)CC1 [Example 12, 1-(4-((4-((3-fluoro-4-((2-methyl-2H-indazol-6-yl)oxy)phenyl)amino)pyrido[3,2-d]pyrimidin-6-yl)oxy)piperidin-1-yl)prop-2-en-1-one] | 1.03 | ≥ 10 | 0.193 | ≥ 5 |  |  |  | 
C=CC(=O)N1CC[C@H]2C[C@@H]1CN2c1ccc2ncnc(Nc3cc(Cl)c(Oc4ccn5ncnc5c4)cc3F)c2n1 [Example 439] |  |  |  |  | 0.147 | ≥ 10 | 0.933 | ≥ 5
C=CC(=O)N1C[C@H]2CC[C@@H]1[C@@H](c1ccc3ncnc(Nc4cc(C)c(Oc5cnc6c(c5)ncn6C)cc4F)c3n1)C2 [Example 425] |  |  |  |  | 0.212 | ≥ 10 | 0.0505 | ≥ 5
C=CC(=O)N1CC2(CCN(c3ccc4ncnc(Nc5ccc(Oc6ccn7ncnc7c6)c(C)c5F)c4n3)C2)C1 [Example 307] |  |  |  |  | 0.104 | ≥ 10 | 0.0366 | ≥ 5
C=CC(=O)N1CCN(c2ccc3ncnc(Nc4cc(Cl)c(Oc5ccn6ncnc6c5)cc4F)c3n2)C[C@H]1COC [Example 345] |  |  |  |  | 0.0094 | 0.174 | 0.0051 | 0.115
C=CC(=O)N1C[C@@H]2CC[C@H]1CN2c1ccc2ncnc(Nc3ccc(Oc4cnc5c(c4)ncn5C)c(C)c3F)c2n1 [Example 320] |  |  |  |  | 0.0456 | 0.436 | 0.0094 | 0.0783
C=CC(=O)N1[C@@H]2CC[C@H]1C[C@@H](c1ccc3ncnc(Nc4ccc(Oc5ccn6ncnc6c5)c(C)c4)c3n1)C2 [Example 215, 1-((1R,3r,5S)-3-(4-((4-([1,2,4]triazolo[1,5-a]pyridin-7-yloxy)-3-methylphenyl)amino)pyrido[3,2-d]pyrimidin-6-yl)-8-azabicyclo[3.2.1]octan-8-yl)prop-2-en-1-one] | 0.0295 | 3.31 | 0.0295 | ≥ 5 |  |  |  | 
C=CC(=O)N1CC[C@H](c2ccc3ncnc(Nc4cc(C)c(Oc5ccc6c(c5)ncn6C)cc4F)c3n2)CC(C)(C)C1 (racemic) [Example 139, rac-(R)-1-(5-(4-((2-fluoro-5-methyl-4-((1-methyl-1H-benzo[d]imidazol-5-yl)oxy)phenyl)amino)pyrido[3,2-d]pyrimidin-6-yl)-3,3-dimethylazepan-1-yl)prop-2-en-1-one] | ≥ 10 | ≥ 10 | 0.0325 | ≥ 5 |  |  |  | 
C=CC(=O)N1CCC2CN(c3nc4c(Nc5ccc(Oc6ccn7ncnc7c6)c(Cl)c5F)ncnc4cc3OC)CC21 (stereo not drawn) [Example 38, 1-(5-(4-((4-([1,2,4]triazolo[1,5-a]pyridin-7-yloxy)-3-chloro-2-fluorophenyl)amino)-7-methoxypyrido[3,2-d]pyrimidin-6-yl)hexahydropyrrolo[3,4-b]pyrrol-1(2H)-yl)prop-2-en-1-one] | 0.0085 | 0.153 | 0.0226 | 0.382 |  |  |  | 
C=CC(=O)N1[C@@H](C)CN(c2ccc3ncnc(Nc4cc(C)c(Oc5ccc6c(c5)ncn6C)cc4F)c3n2)C[C@@H]1C [Example 257] |  |  |  |  | 0.0542 | ≥ 10 | 0.115 | ≥ 5
